What is called Ki is the equilibrium dissociation constant of an inhibitor or competing ligand from its target. Usually EC50 stands for the concentration that produces a half-maximal response.

This is an account of results in patent US7476755B2, “Therapeutic compounds” (Allergan, Inc., priority 2006, dated 2009).

The target of data set [1] is T1, EP2 (Homo sapiens, UniProt P43116). The data set can be described thus: Competition binding, human EP2 receptors ([3H]PGE2). Conditions: HEK 293 cells stably expressing human EP2, [3H]PGE2. The arrangement: expressed in transfected cells. The procedure:
Competition binding experiments were performed in a medium containing Hank's balanced salt solution, Hepes 20 mM, pH 7.3, membranes (˜60 μg protein) or 2×10^5 cells from HEK 293 cells stably expressing human EP2 receptors, [^3H]PGE2 (10 nM) and various concentrations of test compounds in a total volume of 300 μl. Reaction mixtures were incubated at 23° C. for 60 min, and were filtered over Whatman GF/B filters under vacuum. Filters were washed three times with 5 ml ice-cold buffer containing 50 mM Tris/HCl (pH 7.3). Non-specific binding was estimated in the presence of excess unlabeled PGE2 (10 μM). Binding data fitted to the binding model for a single class of binding sites, using nonlinear regression analysis. IC50 values thus obtained were converted to Ki using the equation of Ki=(IC50/(1+[L]/KD) where [L] represents PGE2 concentration (10 nM) and KD the dissociation constant for [^3H]PGE2 at human EP2 receptors (40 nM). […]
The cell homogenate was centrifuged at 19000 r.p.m. for 20 min at 4° C. using a Beckman Ti-60 rotor. The resultant pellet was resuspended in TME buffer to give a final 1 mg/ml protein concentration, as determined by Biorad assay. […]
[^3H-] […] 17-phenyl PGF2α and non-specific binding determined with 10^−5M of unlabeled PGE2, or 17-phenyl PGF2α, according to receptor subtype studied.

In data set [2] the target is T2, EP4 (Homo sapiens, UniProt P35408).
T2 construct: expressed in transfected cells; membrane fraction
T2 sequence (P35408 whole entry): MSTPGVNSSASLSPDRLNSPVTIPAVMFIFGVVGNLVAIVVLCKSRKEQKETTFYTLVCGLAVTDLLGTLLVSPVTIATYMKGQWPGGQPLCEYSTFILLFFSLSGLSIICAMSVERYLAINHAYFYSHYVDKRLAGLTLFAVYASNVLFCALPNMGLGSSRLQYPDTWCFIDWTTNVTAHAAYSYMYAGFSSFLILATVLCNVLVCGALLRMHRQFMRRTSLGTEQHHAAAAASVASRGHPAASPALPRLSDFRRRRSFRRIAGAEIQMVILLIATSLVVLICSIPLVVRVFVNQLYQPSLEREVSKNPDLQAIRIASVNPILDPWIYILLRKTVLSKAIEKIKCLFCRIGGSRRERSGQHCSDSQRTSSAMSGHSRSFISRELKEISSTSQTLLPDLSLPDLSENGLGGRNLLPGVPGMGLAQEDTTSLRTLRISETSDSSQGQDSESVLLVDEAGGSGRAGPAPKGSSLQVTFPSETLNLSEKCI
Description: Radioligand binding, EP4. Conditions: HEK-293 cells expressing EP4, [3H]PGE2; read-out: EP4 Ki EC50. The procedure:
HEK-293 cells stably expressing the human or feline FP receptor, or EP1, EP2, or EP4 receptors were washed with TME buffer, scraped from the bottom of the flasks, and homogenized for 30 sec using a Brinkman PT 10/35 polytron. TME buffer was added to achieve a final 40 ml volume in the centrifuge tubes (the composition of TME is 100 mM TRIS base, 20 mM MgCl2, […]; 10N HCl is added to achieve a pH of 7.4).
The cell homogenate was centrifuged at 19000 r.p.m. for 20 min at 4° C. using a Beckman Ti-60 rotor. The resultant pellet was resuspended in TME buffer to give a final 1 mg/ml protein concentration, as determined by Biorad assay. Radioligand binding competition assays vs. [^3H-]17-phenyl PGF2n (5 nM) were performed in a 100 μl volume for 60 min. Binding reactions were started by adding plasma membrane fraction. The reaction was terminated by the addition of 4 ml ice-cold TRIS-HCl buffer and rapid filtration through glass fiber GF/B filters using a Brandel cell harvester. The filters were washed 3 times with ice-cold buffer and oven dried for one hour.
[^3H-] PGE2 (specific activity 180 Ci mmol) was used as the radioligand for EP receptors. [^3H] 17-phenyl PGF2α was employed for FP receptor binding studies. […] 17-phenyl PGF2α and non-specific binding determined with 10^−5M of unlabeled PGE2, or 17-phenyl PGF2α, according to receptor subtype studied.

Data set [3] addresses T1, EP2. The data set can be described thus: cAMP assay, EP2. The arrangement: expressed in transfected cells; host or cells: HEK-EBNA cells. Type of data set: cell-based. Conditions: HEK-EBNA cells expressing EP2. The protocol: A 384-well drug plate was prepared to contain 6 test compounds, PGE2 and cAMP in 16 serial dilutions in triplicate, using a Biomek station. HEK-EBNA cells expressing a target PG receptor subtype (EP2 or EP4) were suspended in a stimulation buffer (HBSS, 0.1% BSA, 0.5 mM IBMX and 5 mM HEPES, pH 7.4) in a density of 10^4 cells/5 μl. The reaction was initiated by mixing […] drug dilutions with 5 μl of HEK-EBNA cells in a well, carried out for 30 min at room temperature, and followed by the addition of 5 μl anti-cAMP acceptor beads in the control buffer with Tween-20 (25 mM NaCl, 0.03% Tween-20, 5 mM HEPES, pH7.4). After 30 min in the dark at room temperature, the mixtures were incubated with 15 μl biotinylated-cAMP/strepavidin donor beads in Lysis/Detection buffer (0.1% BSA, 0.3% Tween-20 and 5 mM HEPES, pH7.4) for 45 min at the room temperature. Fluorescence changes were read using a Fusion-alpha HT microplate reader.
On the technique in general: Cyclic AMP is a second messenger, typically raised through Gs and lowered through Gi signalling.

Data set [4] addresses T3, hEP2/Gqs5 (Homo sapiens, UniProt P43116).
T3 construct: expressed in transfected cells
Description: FLIPR calcium signal, EP2. It counts as cell-based. The following applies: HEK-293(EBNA) cells, read-out: EP2 Ca2+ EC50. The procedure:
HEK-293(EBNA) cells, stably expressing one type or subtype of recombinant human prostaglandin receptors (prostaglandin receptors expressed: hDP/Gqs5; hEP2; hEP2/Gqs5; hEP3A/Gqi5; hEP4/Gqs5; hFP; hIP; hTP), were cultured in 100 mm culture dishes in high-glucose DMEM medium containing 10% fetal bovine serum, 2 mM I-glutamine, 250 μg/ml geneticin (G418) and 200 μg/ml hygromycin B as selection markers, and 100 units/ml penicillin G, 100 μg/ml streptomycin and 0.25 μg/ml amphotericin B.
Cells were seeded at a density of 5×10^4 cells per well in Biocoat® Poly-D-lysine-coated black-wall, clear-bottom 96-well plates (Becton-Dickinson) and allowed to attach overnight in an incubator at 37° C. Cells were then washed two times with HBSS-HEPES buffer (Hanks Balanced Salt Solution without bicarbonate and phenol red, 20 mM HEPES, pH 7.4) using a Denley Cellwash plate washer (Labsystems). […]
Cells were excited with an Argon laser at 488 nm, and emission was measured through a 510-570 nm bandwidth emission filter (FLIPR™, Molecular Devices, Sunnyvale, Calif.). […] The peak increase in fluorescence intensity was recorded for each well. […] The peak fluorescence change in each drug-containing well was then expressed relative to the controls. […]

The nature of data set [5]: In vivo testing, monkey IOP. Conditions: Conc. 0.1% (g/100 mL). The text has this:
(§1) In vivo testing done as described in U.S. patent application Ser. No. 11/009,298 gave the results in Table 2 below.

A short description of data set [6]: In vivo testing, dog hyperemia. Conditions: Conc. 0.1% (g/100 mL).
Excerpt: as §1

The nature of data set [7]: In vivo testing, dog IOP. Conditions: Conc. 0.1% (g/100 mL).
Excerpt: as §1

Data set [8] is described as follows: In vivo testing, rabbit hyperemia. Conditions: Conc. 0.1% (g/100 mL).
Excerpt: as §1

T1 sequence (P43116 whole entry): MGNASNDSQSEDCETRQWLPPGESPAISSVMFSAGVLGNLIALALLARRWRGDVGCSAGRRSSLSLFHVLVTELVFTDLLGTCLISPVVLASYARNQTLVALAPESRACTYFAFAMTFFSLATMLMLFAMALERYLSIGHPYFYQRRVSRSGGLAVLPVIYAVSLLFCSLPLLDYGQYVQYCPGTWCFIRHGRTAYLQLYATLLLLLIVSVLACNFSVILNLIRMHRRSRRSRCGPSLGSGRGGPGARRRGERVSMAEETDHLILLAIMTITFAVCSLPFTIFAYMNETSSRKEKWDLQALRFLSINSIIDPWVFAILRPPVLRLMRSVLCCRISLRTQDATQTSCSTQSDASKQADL
T3 sequence (P43116 whole entry): as above

As to `CCCCCC(=O)c1ccc([C@@H]2[C@@H](C/C=C\CCCC(=O)O)[C@H](Cl)C[C@H]2O)cc1` [drawing 41], the inhibition constant (Ki) in data set [1] was 0.111 µM; in data set [2], 2.81 µM. For the same compound, the EC50 in data set [3] stood at 0.009 µM; in data set [4] it was 0.031 µM.
`CCCCCC(=O)c1ccc([C@@H]2[C@@H](C/C=C\CCCC(=O)O)[C@H](Cl)C[C@H]2O)cc1` [Entry 1]: the “MONKEY Max. IOP (%)” value in data set [5] worked out at 31%. The “DOG Max. hyperemia” value in data set [6] was determined as 2.0. Also, in data set [7], the “DOG Max. IOP (%)” value is reported as −50%.
Turning to `CCCCCC(=O)c1ccc([C@@H]2[C@@H](C/C=C\CCCC(=O)OC(C)C)[C@H](Cl)C[C@H]2O)cc1` [Entry 2], the “MONKEY Max. IOP (%)” value in data set [5] was determined as 20%. The “DOG Max. hyperemia” value in data set [6] came out at 0.8. In data set [7], the “DOG Max. IOP (%)” value was −37%. Further, the “RABBIT Max. hyperemia” value in data set [8] was 0.
